The record followed here is patent US20230002393A1, “CDK KINASE INHIBITOR” (BEIJING BENICALL BIOTECH CO., LTD., priority 2019, published 2023).

Assay [1] deals with T1, CDK6/CyclinD1 (Homo sapiens, UniProt Q00534).
T1 construct: purchased Carna 04-114
In words: In vitro cell-free CDK6/CyclinD1 kinase activity assay (TR-FRET). In kind it is biochemical. The following applies: ATP at Km. On the procedure:
It should be noted that the assay can also be conducted by a similar method. The assay steps in this Test Example are as follows:
The CDK6/CyclinD1 kinase activity was determined using a time-resolved fluorescence resonance energy transfer (TR-FRET) method. Measurements were performed in a reaction volume of 20 μL using 384-well assay plates. […] The reaction was stopped by adding a mixture of a peptide antibody (trade name: Cisbio, product No. 64CUSKAY) and Sa-XL665 (trade name: Cisbio, product No. 610SAXLB) diluted in HTRF KinEASE detection buffer (trade name: Cisbio, product No. 62SDBRDF, containing EDTA). After the mixture was incubated for 1 hour at room temperature, the plate was read. The TR-FRET signal was measured on a multimode plate reader (EnVision™, a multi-function microplate detector, PerkinElmer) at an excitation wavelength (λEx) of 330 nm and detection wavelengths (λEm) of 615 and 665 nm. The activity was determined by the ratio of fluorescence at 665 nm to that at 615 nm. For each compound, the enzyme activities of different concentrations of the compound were measured to determine IC50. The negative control contained no inhibitor. Two no-enzyme controls were used to determine baseline fluorescence levels. IC50 was obtained by fitting using the GraphPad 6.02 software.
8-10 concentrations were prepared for each compound, and formulated in DMSO. The stock concentration was 200× the working concentration. For example, if the working concentration was 100 nM, the corresponding concentration of the formulated stock solution was 20 μM.
In the analysis of in vitro inhibitory activity on CDK kinase, the IC50 value of each of the Example compounds and Reference Example compounds was determined.

The test system of assay [2] is MCF-7 cells. As to the kind of experiment: Cell viability assay, MCF-7 cells (CellTiter-Glo, 168 h). The following applies: Homo sapiens, MCF7. In kind it is cell-based. On the procedure: An in vitro cell viability assay was conducted using some Example compounds following the steps below:
1. After recovery, MCF-7 cells (obtained from the Shanghai Cell Bank of the Chinese Academy of Sciences) were cultured at 37° C., 5% CO2, and 95% humidity.
2. 8 compound solutions at different concentrations were prepared for each Example compound. 50 μL of the compound solution at each concentration was added to a 96-well black plate.
3. The cell concentration was adjusted to about 30,000 cells/mL. 100 μL of the cell suspension was added to the 96-well plate, and mixed well to a final cell density of about 3,000 cells/well.
4. The 96-well plate was incubated at 37° C., 5% CO2, and 95% humidity for 168 h, i.e., 7 days.
5. The cell survival rate was measured by the method of CellTiter-Glo® Luminescent Cell Viability Assay (Promega, Cat #G7572). The fluorescence data were read on a microplate reader (EnVision™, a multi-function microplate detector, PerkinElmer).
6. The obtained fluorescence data were analyzed using the GraphPad Prism software. The cell survival rate was calculated for each Example compound at each concentration, and the IC50 interval of each Example compound was determined.
On the technique in general: ATP-based viability assays read luminescence as a measure of living cells.

T1 sequence (Q00534 whole entry): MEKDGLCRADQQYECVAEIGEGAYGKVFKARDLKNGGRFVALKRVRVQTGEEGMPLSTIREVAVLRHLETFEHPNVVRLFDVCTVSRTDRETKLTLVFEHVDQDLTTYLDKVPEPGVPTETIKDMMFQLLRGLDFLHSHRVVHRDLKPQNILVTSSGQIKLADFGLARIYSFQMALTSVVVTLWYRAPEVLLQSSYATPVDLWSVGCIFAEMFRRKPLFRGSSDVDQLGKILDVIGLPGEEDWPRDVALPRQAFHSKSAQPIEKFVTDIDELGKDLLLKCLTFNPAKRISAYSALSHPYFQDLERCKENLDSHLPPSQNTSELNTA
T1 sequence (P24385 whole entry partner): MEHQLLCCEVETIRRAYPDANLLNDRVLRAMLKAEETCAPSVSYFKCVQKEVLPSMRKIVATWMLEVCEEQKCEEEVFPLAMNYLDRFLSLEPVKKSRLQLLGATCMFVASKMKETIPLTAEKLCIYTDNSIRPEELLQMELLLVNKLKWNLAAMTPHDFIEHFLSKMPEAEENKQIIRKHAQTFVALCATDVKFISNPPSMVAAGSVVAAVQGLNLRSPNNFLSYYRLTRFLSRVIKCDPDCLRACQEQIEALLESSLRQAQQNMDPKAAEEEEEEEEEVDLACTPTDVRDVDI

Usually IC50 stands for the concentration that gives 50% inhibition. A high value points to weaker potency. Turning to `Cc1ccc(-c2cc3cnc(Nc4ccc(N5CCNCC5)cn4)nn3c2C2=CCCC2)cn1` [Example 89], the IC50 in assay [1] was under 100 nM; in assay [2] it was under 500 nM.

For `Cc1cc(-c2cc3cnc(Nc4ccc(N5CCNCC5)cn4)nn3c2C2=CCCC2)ccn1` [Example 90], the IC50 is under 100 nM in assay [1] and under 500 nM in assay [2].

For `COc1cc(F)ccc1-c1c(-c2c[nH]nc2C)cc2cnc(Nc3ccc(N4CCNCC4)cn3)nn12` [Example 91], the IC50 lay in the range of 100 to 1000 nM in assay [1] and 2500 to 10000 nM in assay [2].

For the compound `Cn1cc(-c2cc3cnc(Nc4ccc(N5CC6(CCNC6)C5)cn4)nn3c2C2=CCCC2)cn1` [Example 92], the figures for the IC50 in assay [1] and in assay [2] were 100 to 1000 nM and 500 to 2500 nM, respectively.

Regarding `Cn1cc(-c2cc3cnc(Nc4ccc(N5CCC6(CCNCC6)CC5)cn4)nn3c2C2=CCCC2)cn1` [Example 93], the values for the IC50 in assay [1] and in assay [2] were under 100 nM and under 500 nM, respectively.

Turning to `COc1cc(F)ccc1-c1c(-c2cn[nH]c2)cc2cnc(Nc3ccc(N4CCNCC4)cn3)nn12` [Example 94], the IC50 in assay [1] was under 100 nM; in assay [2], under 500 nM.

Turning to `C1=C(c2c(-c3cncnc3)cc3cnc(Nc4ccc(N5CCC6(CCNCC6)CC5)cn4)nn23)CCC1` [Example 96], the IC50 in assay [1] is under 100 nM; in assay [2] it was 500 to 2500 nM.

`C1=C(c2c(-c3ccncc3)cc3cnc(Nc4ccc(N5CCNCC5)cn4)nn23)CCC1` [Example 97]: the values for the half-maximal inhibitory concentration (IC50) in assay [1] and in assay [2] were under 100 nM and under 500 nM, respectively.

In the case of `CN1CCN(c2ccc(Nc3ncc4cc(-c5cncnc5)c(C5=CCCC5)n4n3)nc2)CC1` [Example 98], the IC50 was under 100 nM in assay [1] and 500 to 2500 nM in assay [2].

For `CN1CCN(c2ccc(Nc3ncc4cc(C(=O)N(C)C)c(C5=CCCC5)n4n3)nc2)CC1` [Example 99], the IC50 is under 100 nM in assay [1] and under 500 nM in assay [2].

`COc1ccc(-c2c(C(=O)N(C)C)cc3cnc(Nc4ccc(N5CCN(C)CC5)cn4)nn23)cc1` [Example 100]: the IC50 in assay [1] is under 100 nM; in assay [2], under 500 nM.

Turning to `[2H]C([2H])([2H])N1CCN(c2ccc(Nc3ncc4cc(C(=O)N(C)C)c(-c5ccc(OC)cc5)n4n3)nc2)CC1` [Example 101], the IC50 in assay [1] was under 100 nM; in assay [2], under 500 nM.

With `[2H]C([2H])([2H])N1CCN(c2ccc(Nc3ncc4cc(C(=O)N(C)C)c(C5=CCCC5)n4n3)nc2)CC1` [Example 102], the results for the IC50 in assay [1] and in assay [2] were under 100 nM and under 500 nM, respectively.

As to `CCN1CCN(c2ccc(Nc3ncc4cc(C(=O)N(C)C)c(C5=CCCC5)n4n3)nc2)CC1` [Example 103], the IC50 in assay [1] is under 100 nM; in assay [2], under 500 nM.

Consider `[2H]C([2H])([2H])C([2H])([2H])N1CCN(c2ccc(Nc3ncc4cc(C(=O)N(C)C)c(C5=CCCC5)n4n3)nc2)CC1` [Example 104], for which the IC50 in assay [1] is under 100 nM; in assay [2] it was under 500 nM.

As to `CN1CCN(c2ccc(Nc3ncc4cc(C(=O)N(C)C)c(C5=CCOCC5)n4n3)nc2)CC1` [Example 105], the IC50 in assay [1] was under 100 nM; in assay [2], under 500 nM.

With `[2H]C([2H])([2H])N1CCN(c2ccc(Nc3ncc4cc(C(=O)N(C)C)c(C5=CCOCC5)n4n3)nc2)CC1` [Example 106], the IC50 was under 100 nM in assay [1] and under 500 nM in assay [2].

For `CN(C)C(=O)c1cc2cnc(Nc3ccc(N4CCNCC4)cn3)nn2c1C1=CCOCC1` [Example 107], the IC50 in assay [1] was under 100 nM; in assay [2] it was under 500 nM.

For `CN(C)C(=O)c1cc2cnc(Nc3ccc(N4CCNCC4)cn3)nn2c1-c1ccccc1` [Example 108], the figures for the half-inhibitory concentration (IC50) in assay [1] and in assay [2] were under 100 nM and under 500 nM, respectively.

In the case of `CN(C)C(=O)c1cc2cnc(Nc3ccc(N4CCN(C5CC5)CC4)cn3)nn2c1C1=CCCC1` [Example 109], the values for the IC50 in assay [1] and in assay [2] were under 100 nM and under 500 nM, respectively.

As for `Cc1cc(-c2cc3cnc(Nc4ccc(N5CCN(C)CC5)cn4)nn3c2C2=CCCC2)ccn1` [Example 110], the IC50 in assay [1] was under 100 nM; in assay [2] it was under 500 nM.

For `C1=C(c2c(-c3cnco3)cc3cnc(Nc4ccc(N5CCNCC5)cn4)nn23)CCC1` [Example 111], the IC50 in assay [1] is under 100 nM; in assay [2] it was under 500 nM.

On to `[2H]C([2H])([2H])N(C(=O)c1cc2cnc(Nc3ccc(N4CCNCC4)cn3)nn2c1C1=CCCC1)C([2H])([2H])[2H]` [Example 112], for which the IC50 in assay [1] is under 100 nM; in assay [2] it was under 500 nM.

With `[2H]C([2H])([2H])N(C(=O)c1cc2cnc(Nc3ccc(N4CCN(C)CC4)cn3)nn2c1C1=CCCC1)C([2H])([2H])[2H]` [Example 113], the IC50 in assay [1] was under 100 nM; in assay [2] it was under 500 nM.

For the compound `[2H]C([2H])([2H])N1CCN(c2ccc(Nc3ncc4cc(C(=O)N(C([2H])([2H])[2H])C([2H])([2H])[2H])c(C5=CCCC5)n4n3)nc2)CC1` [Example 114], the half-maximal inhibitory concentration (IC50) in assay [1] was under 100 nM; in assay [2], under 500 nM.

Consider `[2H]C([2H])([2H])N(C(=O)c1cc2cnc(Nc3ccc(N4CCN(C([2H])([2H])C([2H])([2H])[2H])CC4)cn3)nn2c1C1=CCCC1)C([2H])([2H])[2H]` [Example 115], for which the IC50 in assay [1] is under 100 nM; in assay [2], under 500 nM.

`[2H]C([2H])([2H])N(C(=O)c1cc2cnc(Nc3ccc(N4CCNCC4)cn3)nn2c1-c1ccccc1)C([2H])([2H])[2H]` [Example 116]: the concentration for half-maximal inhibition (IC50) in assay [1] is under 100 nM; in assay [2], under 500 nM.

As to `[2H]C([2H])([2H])N(C(=O)c1cc2cnc(Nc3ccc(N4CCNCC4)cn3)nn2c1-c1ccc(OC)cc1)C([2H])([2H])[2H]` [Example 117], the IC50 in assay [1] is under 100 nM; in assay [2], under 500 nM.

With `[2H]C([2H])([2H])N(C(=O)c1cc2cnc(Nc3ccc(N4CCN(CC)CC4)cn3)nn2c1C1=CCCC1)C([2H])([2H])[2H]` [Example 118], the IC50 in assay [1] was under 100 nM; in assay [2] it was under 500 nM.

On to `[2H]C([2H])([2H])N(C(=O)c1cc2cnc(Nc3ccc(N4CCN(C)CC4)cn3)nn2c1C1=CCOCC1)C([2H])([2H])[2H]` [Example 119], for which the IC50 in assay [1] was under 100 nM; in assay [2], under 500 nM.

For `[2H]C([2H])([2H])N(C(=O)c1cc2cnc(Nc3ccc(N4CCN(C)CC4)cn3)nn2c1-c1ccccc1)C([2H])([2H])[2H]` [Example 120], the half-maximal inhibitory concentration (IC50) in assay [1] was under 100 nM; in assay [2], under 500 nM.

`[2H]C([2H])([2H])N(C(=O)c1cc2cnc(Nc3ccc(N4CCN(C)CC4)cn3)nn2c1-c1ccc(OC)cc1)C([2H])([2H])[2H]` [Example 121]: the IC50 in assay [1] is under 100 nM; in assay [2], under 500 nM.

For `[2H]C([2H])([2H])N(C(=O)c1cc2cnc(Nc3ccc(N4CCNCC4)cn3)nn2c1C1=CCOCC1)C([2H])([2H])[2H]` [Example 122], the 50% inhibitory concentration (IC50) in assay [1] was under 100 nM; in assay [2] it was under 500 nM.

For `[2H]C([2H])([2H])N1CCN(c2ccc(Nc3ncc4cc(C(=O)N(C([2H])([2H])[2H])C([2H])([2H])[2H])c(-c5ccccc5)n4n3)nc2)CC1` [Example 123], the half-inhibitory concentration (IC50) in assay [1] was under 100 nM; in assay [2], under 500 nM.

Consider `[2H]C([2H])([2H])N1CCN(c2ccc(Nc3ncc4cc(C(=O)N(C([2H])([2H])[2H])C([2H])([2H])[2H])c(-c5ccc(OC)cc5)n4n3)nc2)CC1` [Example 124], for which the results for the IC50 in assay [1] and in assay [2] were under 100 nM and under 500 nM, respectively.

Take `[2H]C([2H])([2H])N1CCN(c2ccc(Nc3ncc4cc(C(=O)N(C([2H])([2H])[2H])C([2H])([2H])[2H])c(-c5ccc(F)cc5)n4n3)nc2)CC1` [Example 125]: the IC50 was under 100 nM in assay [1] and under 500 nM in assay [2].

On to `[2H]C([2H])([2H])N1CCN(c2ccc(Nc3ncc4cc(-c5cnn(C)c5)c(C5=CCCC5)n4n3)nc2)CC1` [Example 126], for which the IC50 in assay [1] is under 100 nM; in assay [2], under 500 nM.

As for `[2H]C([2H])([2H])N1CCN(c2ccc(Nc3ncc4cc(C(=O)N(C([2H])([2H])[2H])C([2H])([2H])[2H])c(-c5ccc(Cl)cc5)n4n3)nc2)CC1` [Example 127], the IC50 was under 100 nM in assay [1] and under 500 nM in assay [2].

For `CP(C)(=O)c1ccc(Nc2ncc3cc(C#N)c(Br)n3n2)cc1` [Reference Example 128, reference compound], the values for the IC50 in assay [1] and in assay [2] were 1000 to 3000 nM and over 10000 nM, respectively.
